Results from patent US4209527A, “Benzimidazolone derivatives” (Pfizer Inc., priority 1979, dated 1980).
Structures can show the parent of a compound that is named as a salt.

System: not listed separately
Test: toxic side effects / untoward pharmacological side reactions
Assay type: in vivo, rat
Conditions: diabetic rats, oral, 2.5 mg./kg. to 25 mg./kg.
From the text: As previously indicated, the 3-(substituted methyl)-2-oxo-1-benzimidazolinealkanoic acid final products of this invention are all readily adapted to therapeutic use as aldose reductase inhibitors for the control of chronic diabetic complications, in view of their ability to reduce lens sorbitol levels in diabetic subjects to a statistically significant degree. […] Furthermore, the herein described compounds of this invention can be administered by either the oral or parenteral routes of administration, for the present purposes at hand, without causing any significant untoward pharmacological side reactions to occur in the subject to whom they are so administered. In general, these compounds are ordinarily administered in dosages ranging from about 0.25 mg. to about 25 mg. per kg. of body weight per day, although variations will necessarily occur depending upon the weight and condition of the subject being treated and the particular route of administration chosen.

Structure (SMILES) | signs of toxic side effects
O=C(O)Cn1c(=O)n(Cc2ccccc2)c2ccccc21 [Example 15, 3-benzyl-2-oxo-1-benzimidazolineacetic acid] | without showing any substantial signs of toxic side effects

Biological target: T1, aldose reductase (Bos taurus, UniProt P16116)
T1 construct: partially purified aldose reductase enzyme obtained from calf lens; from tissue; host or cells: calf lens
Test: inhibition of aldose reductase enzyme activity (procedure of S. Hayman et al., modified by K. Sestanj et al.)
Assay type: biochemical
Conditions: 10^-4 M; partially purified enzyme from calf lens
Procedure: The activity of the compounds of the present invention, as agents for the control of chronic diabetic complications, is determined by their ability to successfully pass one or more of the following standard biological and/or pharmacological tests, viz., (1) measuring their ability to inhibit the enzyme activity of isolated aldose reductase; (2) measuring their ability to reduce or inhibit sorbitol accumulation in the sciatic nerve of acutely streptozotocinized (i.e., diabetic) rats; (3) measuring their ability to reverse already-elevated sorbitol levels in the sciatic nerve and lens of chronic streptozotocin-induced diabetic rats; (4) measuring their ability to prevent or inhibit galactitol formation in the lens of acutely galactosemic rats and (5) measuring their ability to delay cataract formation and reduce the severity of lens opacities in chronic galactosemic rats.
The following 3-(substituted methyl)-2-oxo-1-benzimidazolinealkanoic acid final products of Examples 15-24 and 26-28, respectively, were tested at a concentration level of 10^-4 M for their ability to reduce or inhibit aldose reductase enzyme activity via the procedure of S. Hayman et al., as described in the Journal of Biological Chemistry, Vol. 240, p. 877 (1965) and as modified by K. Sestanj et al. in U.S. Pat. No. 3,821,383. In every case, the substrate employed was partially purified aldose reductase enzyme obtained from calf lens.

Structure (SMILES) | inhibition at 100 µM [%]
O=C(O)Cn1c(=O)n(Cc2ccc3ccccc3c2)c2ccccc21 [Example 22, 3-(β-naphthyl)methyl-2-oxo-1-benzimidazolineacetic acid] | 86
O=C(O)Cn1c(=O)n(CC(=O)c2ccc(Cl)cc2Cl)c2ccccc21 [Example 23, 3-(2,4-dichlorobenzoylmethyl)-2-oxo-1-benzimidazolineacetic acid] | 71
O=C(O)Cn1c(=O)n(Cc2ccccc2)c2cc(Cl)c(Cl)cc21 [Example 24, 3-benzyl-5,6-dichloro-2-oxo-1-benzimidazolineacetic acid] | 89
Cc1ccc(Cn2c(=O)n(CC(=O)O)c3ccccc32)cc1 [Example 16, 3-(p-xylyl)-2-oxo-1-benzimidazolineacetic acid] | 86
O=C(O)Cn1c(=O)n(Cc2ccccc2)c2ccccc21 [Example 15, 3-benzyl-2-oxo-1-benzimidazolineacetic acid] | 84

The next lines start with the values.

inhibition at 100 µM [%] | Structure (SMILES)
89 | O=C(O)Cn1c(=O)n(Cc2ccc(Cl)c(Cl)c2)c2ccccc21 [Example 19, 3-(3,4-dichlorobenzyl)-2-oxo-1-benzimidazolineacetic acid]
88 | COc1ccc(Cn2c(=O)n(CC(=O)O)c3ccccc32)cc1 [Example 18, 3-(p-methoxybenzyl)-2-oxo-1-benzimidazolineacetic acid]
91 | CC(C(=O)O)n1c(=O)n(Cc2ccc(Cl)c(Cl)c2)c2ccccc21 (stereo not drawn) [Example 27, α-[3-(3,4-dichlorobenzyl)-2-oxo-1-benzimidazoline]propionic acid]
87 | O=C(O)Cn1c(=O)n(Cc2ccc(Cl)cc2Cl)c2ccccc21 [Example 20, 3-(2,4-dichlorobenzyl)-2-oxo-1-benzimidazolelineacetic acid]
90 | O=C(O)CCn1c(=O)n(Cc2ccc(Cl)c(Cl)c2)c2ccccc21 [Example 28, β-[3-(3,4-dichlorobenzyl)-2-oxo-1-benzimidazoline]propionic acid]
92 | O=C(O)Cn1c(=O)n(Cc2cccc3ccccc23)c2ccccc21 [Example 21, 3-(α-naphthyl)methyl-2-oxo-1-benzimidazolineacetic acid]
82 | O=C(O)Cn1c(=O)n(Cc2ccc(Cl)c(Cl)c2)c2cc(Cl)c(Cl)cc21 [Example 26, 3-(3,4-dichlorobenzyl)-5,6-dichloro-2-oxo-1-benzimidazolineacetic acid]
88 | O=C(O)Cn1c(=O)n(Cc2ccc(Cl)cc2)c2ccccc21 [Example 17, 3-(p-chlorobenzyl)-2-oxo-1-benzimidazolineacetic acid]

System: not listed separately
Test: solubility in water
Assay type: physicochemical
Conditions: amorphous powder, freeze-dried
Procedure: The sodium salt of 3-benzyl-2-oxo-1-benzimidazolineacetic acid is prepared by dissolving said compound in water containing an equivalent amount in moles of sodium hydroxide and then freeze-drying the mixture.

Structure (SMILES) | solubility in water
O=C(O)Cn1c(=O)n(Cc2ccccc2)c2ccccc21 [Example 35, sodium salt of 3-benzyl-2-oxo-1-benzimidazolineacetic acid] | freely-soluble in water
